Test results: patent publication US11414415B2, “6H-imidazo[4,5,1-ij]quinolone, synthesis method and use thereof” (HANGZHOU NORMAL UNIVERSITY, priority 2020, dated 2022)

System: A549 (lung cancer cell)
Assay: MTT tumor cell proliferation assay on A549 lung cancer cells
Type: cell-based
Settings: Homo sapiens, 48 h, 44 h culture + 4 h MTT, read at 570 nm, sample concentration 0.5 mg/mL (water as solvent)
Procedure: Biological activity assay was conducted on compounds I-d to I-f prepared in the above examples:
Original osimertinib was used as control.
Specific procedure was as follows: plating A549 cells in a 96-well plate at a cell density of 2×10^4 cells/mL; after placing in an incubator overnight at 37° C. in 5% CO2, adding samples to be screened (sample concentrations are given in Table 1; medication groups were given 10 μL of the drug at the corresponding concentration per well, and blank control group was given 10 μL of PBS per well); after culturing for 44 h, adding 10 μL of MTT per well to culture for additional 4 h; dissolving in DMSO, shaking, and detecting on a microplate reader at 570 nm.
Inhibitory concentration 50 (IC50) values of 6H-imidazo[4,5,1-ij]quinolone derivatives with structures as shown in formulas I-d to I-f and control drug original osimertinib against A549 (lung cancer cell) were detected.

| Compound | IC50 |
| --- | --- |
| Cc1ccc(-c2nc3cccc4c(=O)ccn2c34)cc1 [I-a] | 11.2 µM |
| O=c1ccn2c(-c3ccc(F)cc3)nc3cccc1c32 [I-b] | 15.3 µM |
| O=c1ccn2c(-c3ccccc3Cl)nc3cccc1c32 [I-c] | 16.2 µM |
| O=c1ccn2c(-c3cccs3)nc3cccc1c32 [I-d] | 9.9 µM |
| O=c1ccn2c(C3CC3)nc3cccc1c32 [I-e] | 21.1 µM |
| COc1cc2nc(-c3ccccc3)n3ccc(=O)c(c1)c23 [I-f] | 12.3 µM |
| C=CC(=O)Nc1cc(Nc2nccc(-c3cn(C)c4ccccc34)n2)c(OC)cc1N(C)CCN(C)C [Osimertinib, osimertinib, reference compound] | 9.74 µM |

Same assay, conditions: statement in words

| Compound | IC50 value compared with osimertinib |
| --- | --- |
| O=c1ccn2c(-c3cccs3)nc3cccc1c32 [I-d] | equivalent to anti-lung cancer drug osimertinib |
